Counter-ions that a name gives are not always drawn.
Each compound was assayed against T1, gastrin receptor (Rattus norvegicus, UniProt P30553) (assay: gastrin antagonist activity in immature rat stomach assay (pentagastrin dose-response, acid secretion)). Settings: isolated immature rat stomach, cumulative pentagastrin dose-response curves, read-out: Gastrin pKb (converted).
T1 construct: The stomach was excised and flushed with ca. 1 ml of unbuffered physiological saline solution; from tissue; host or cells: isolated whole stomach of immature rats (ca. 21 days old)
T1 sequence (P30553 1-452): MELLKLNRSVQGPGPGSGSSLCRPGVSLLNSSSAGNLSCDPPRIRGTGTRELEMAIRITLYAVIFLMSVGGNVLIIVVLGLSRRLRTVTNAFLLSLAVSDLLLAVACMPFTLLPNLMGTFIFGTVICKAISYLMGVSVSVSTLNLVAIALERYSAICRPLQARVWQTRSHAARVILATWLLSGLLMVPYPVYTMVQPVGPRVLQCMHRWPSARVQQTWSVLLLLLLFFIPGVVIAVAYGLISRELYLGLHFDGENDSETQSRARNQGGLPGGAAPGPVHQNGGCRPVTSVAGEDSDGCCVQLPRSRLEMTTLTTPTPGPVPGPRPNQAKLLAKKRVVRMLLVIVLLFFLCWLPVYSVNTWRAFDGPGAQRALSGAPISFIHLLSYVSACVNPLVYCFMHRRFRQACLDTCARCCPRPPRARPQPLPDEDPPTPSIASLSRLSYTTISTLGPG
Protocol: The compounds of the examples were also tested for gastrin antagonist activity in an immature rat stomach assay. The procedure was as follows:
The oesophagus of immature rats (33-50 g, ca. 21 days old) was ligated at the level of the cardiac sphincter and the duodenal sphincter was cannulated. The stomach was excised and flushed with ca. 1 ml of unbuffered physiological saline solution. The fundus was punctured and cannulated. A further 4-5 ml of unbuffered solution was flushed through the stomach to ensure the preparation was not leaking. The stomach was lowered into a jacketed organ bath containing 40 ml of buffered solution containing 3×10^−8 M 5-methylfurmethide, maintained at 37° and gassed vigorously with 95% O2/5% CO2. The stomach was continuously perfused at a rate of 1 ml min^−1 with unbuffered solution gassed with 100% O2 with the perfusate passing over an internally referenced pH-electrode fixed 12 cm above the stomach.
After 120 min of stabilisation the drugs were added directly to the serosal solution in the organ bath and after a further 60 min cumulative pentagastrin dose-response curves were started. Changes in acid secretion were monitored and the curves analysed according to Black et al., Br. J. Pharmacol., 1985, 86, 581.

Row | Kb [µM] | Structure (SMILES)
1 | 0.148 | Cc1c(NC(=O)c2nc(C3CCCCC3)[nH]c2COC23CC4CC(CC(C4)C2)C3)cccc1C(=O)O [Example 218, 3-{[5-(Adamantan-1-yloxymethyl)-2-cyclohexyl-1H-imidazole-4-carbonyl]-amino}-2-methyl-benzoic Acid]
2 | 0.000724 | O=C(O)c1cccc(NC(=O)c2nc(C3CCCCCC3)[nH]c2COC23CC4CC(CC(C4)C2)C3)c1 [Example 228, 3-{[5-(Adamantan-1-yloxymethyl)-2-cycloheptyl-1H-imidazole-4-carbonyl]-amino}-benzoic Acid]
3 | 0.0355 | O=C(O)Cc1cccc(NC(=O)c2nc(C3CCCCCC3)[nH]c2COC23CC4CC(CC(C4)C2)C3)c1 [Example 229, (3-{[5-(Adamantan-1-yloxymethyl)-2-cycloheptyl-1H-imidazole-4-carbonyl]-amino}-phenyl)-acetic Acid]
4 | 0.0708 | O=C(O)c1cccc(NC(=O)c2nc(C3CCOCC3)[nH]c2COC23CC4CC(CC(C4)C2)C3)c1 [Example 233, 3-{[5-(Adamantan-1-yloxymethyl)-2-(tetrahydro-pyran-4-yl)-1H-imidazole-4-carbonyl]-amino}-benzoic Acid]
5 | 0.708 | CC(C)(C(=O)O)c1cccc(NC(=O)c2nc(C3CCCCC3)[nH]c2CCC23CC4CC(CC(C4)C2)C3)c1 [Example 256, 2-(3-{[5-(2-Adamantan-1-yl-ethyl)-2-cyclohexyl-1H-imidazole-4-carbonyl]-amino}-phenyl)-2-methyl-propionic Acid]
6 | 0.204 | O=C(O)CCc1cccc(NC(=O)c2nc(C3CCCCC3)[nH]c2CCC23CC4CC(CC(C4)C2)C3)c1 [Example 258, 3-(3-{[5-(2-Adamantan-1-yl-ethyl)-2-cyclohexyl-1H-imidazole-4-carbonyl]-amino}-phenyl)-propionic Acid Trifluoroacetic Acid Salt]
7 | 0.0708 | O=C(O)/C=C/c1cccc(NC(=O)c2nc(C3CCCCC3)[nH]c2CCC23CC4CC(CC(C4)C2)C3)c1 [Example 259, trans-3-(3-{[5-(2-Adamantan-1-yl-ethyl)-2-cyclohexyl-1H-imidazole-4-carbonyl]-amino}-phenyl)-acrylic Acid]
8 | 0.224 | O=C(O)CNS(=O)(=O)c1cccc(NC(=O)c2nc(C3CCCCC3)[nH]c2CCC23CC4CC(CC(C4)C2)C3)c1 [Example 262, (3-{[5-(2-Adamantan-1-yl-ethyl)-2-cyclohexyl-1H-imidazole-4-carbonyl]-amino}-benzenesulfonylamino)-acetic Acid]
9 | 0.0759 | O=C(O)CNC(=O)c1cccc(NC(=O)c2nc(C3CCCCC3)[nH]c2CCC23CC4CC(CC(C4)C2)C3)c1 [Example 263, (3-{[5-(2-Adamantan-1-yl-ethyl)-2-cyclohexyl-1H-imidazole-4-carbonyl]-amino}-benzoylamino)-acetic Acid]
10 | 0.0191 | CN(CC(=O)O)C(=O)c1cccc(NC(=O)c2nc(C3CCCCC3)[nH]c2CCC23CC4CC(CC(C4)C2)C3)c1 [Example 266, [(3-{[5-(2-Adamantan-1-yl-ethyl)-2-cyclohexyl-1H-imidazole-4-carbonyl]-amino}-benzoyl)-methyl-amino]-acetic Acid]
11 | 0.112 | O=C(O)CC(=O)Nc1cccc(NC(=O)c2nc(C3CCCCC3)[nH]c2CCC23CC4CC(CC(C4)C2)C3)c1 [Example 267, N-(3-{[5-(2-Adamantan-1-yl-ethyl)-2-cyclohexyl-1H-imidazole-4-carbonyl]-amino}-phenyl)-malonamic Acid]
12 | 0.224 | O=C(Nc1cccc(S(=O)(=O)O)c1)c1nc(C2CCCCC2)[nH]c1CCC12CC3CC(CC(C3)C1)C2 [Example 268, 3-{[5-(2-Adamantan-1-yl-ethyl)-2-cyclohexyl-1H-imidazole-4-carbonyl]-amino}-benzenesulfonic Acid]
13 | 0.933 | O=C(O)C=Cc1cc(NC(=O)c2nc(C3CCCCC3)[nH]c2CCC23CC4CC(CC(C4)C2)C3)ccc1Cl [Example 269, 3-(5-{[5-(2-Adamantan-1-yl-ethyl)-2-cyclohexyl-1H-imidazole-4-carbonyl]-amino}-2-chloro-phenyl)-acrylic Acid]
14 | 0.195 | O=C(O)Cc1c(F)ccc(NC(=O)c2nc(C3CCCCC3)[nH]c2CCC23CC4CC(CC(C4)C2)C3)c1F [Example 270, (3-{[5-(2-Adamantan-1-yl-ethyl)-2-cyclohexyl-1H-imidazole-4-carbonyl]-amino}-2,6-difluoro-phenyl)-acetic Acid]
15 | 0.355 | O=C(O)CCc1cc(NC(=O)c2nc(C3CCCCC3)[nH]c2CCC23CC4CC(CC(C4)C2)C3)ccc1Cl [Example 271, 3-(5-{[5-(2-Adamantan-1-yl-ethyl)-2-cyclohexyl-1H-imidazole-4-carbonyl]-amino)-2-chloro-phenyl)-propionic Acid]
16 | 0.186 | C[C@H](NC(=O)c1cccc(NC(=O)c2nc(C3CCCCC3)[nH]c2CCC23CC4CC(CC(C4)C2)C3)c1)C(=O)O [Example 272, (S)-2-(3-{[5-(2-Adamantan-1-yl-ethyl)-2-cyclohexyl-1H-imidazole-4-carbonyl]-amino}-benzoylamino)-propionic Acid]
17 | 0.049 | C[C@@H](NC(=O)c1cccc(NC(=O)c2nc(C3CCCCC3)[nH]c2CCC23CC4CC(CC(C4)C2)C3)c1)C(=O)O [Example 273, (R)-2-(3-{[5-(2-Adamantan-1-yl-ethyl)-2-cyclohexyl-1H-imidazole-4-carbonyl]-amino}-benzoylamino)-propionic Acid]

More lines, now with the values behind:

Row | Structure (SMILES) | Kb [µM]
18 | Cc1c(NC(=O)c2nc(C34CCC(CC3)CC4)[nH]c2COC23CC4CC(CC(C4)C2)C3)cccc1C(=O)O [Example 222, 3-{[5-(Adamantan-1-yloxymethyl)-2-bicyclo[2.2.2]oct-1-yl-1H-imidazole-4-carbonyl]-amino}-2-methyl-benzoic Acid] | 0.0204
19 | O=C(O)c1cc(NC(=O)c2nc(C34CCC(CC3)CC4)[nH]c2COC23CC4CC(CC(C4)C2)C3)ccc1F [Example 223, 5-{[5-(Adamantan-1-yloxymethyl)-2-bicyclo[2.2.2]oct-1-yl-1H-imidazole-4-carbonyl]-amino}-2-fluoro-benzoic Acid] | 0.000776
20 | O=C(O)c1cccc(NC(=O)c2nc(C34C=CC(CC3)CC4)[nH]c2COC23CC4CC(CC(C4)C2)C3)c1 [Example 225, 3-{[5-(Adamantan-1-yloxymethyl)-2-bicyclo[2.2.2]oct-2-en-1-yl-1H-imidazole-4-carbonyl]-amino}-benzoic Acid] | 0.000661
21 | Cc1cc(C)c(-c2nc(C(=O)Nc3cccc(C(=O)O)c3)c(COC34CC5CC(CC(C5)C3)C4)[nH]2)c(C)c1 [Example 226, 3-{[5-(Adamantan-1-yloxymethyl)-2-(2,4,6-trimethyl-phenyl)-1H-imidazole-4-carbonyl]-amino}-benzoic Acid] | 0.0135
22 | Cc1cc(C)c(-c2nc(C(=O)Nc3cccc(CC(=O)O)c3)c(COC34CC5CC(CC(C5)C3)C4)[nH]2)c(C)c1 [Example 227, (3-{[5-(Adamantan-1-yloxymethyl)-2-(2,4,6-trimethyl-phenyl)-1H-imidazole-4-carbonyl]-amino}-phenyl)-acetic Acid] | 0.0525
23 | O=C(O)c1cccc(NC(=O)c2nc(C3CCC=CCC3)[nH]c2COC23CC4CC(CC(C4)C2)C3)c1 [Example 230, 3-{[5-(Adamantan-1-yloxymethyl)-2-cyclohept-4-enyl-1H-imidazole-4-carbonyl]-amino}-benzoic Acid] | 0.00617
24 | O=C(O)c1cccc(NC(=O)c2nc(C3C4CCC3CC4)[nH]c2COC23CC4CC(CC(C4)C2)C3)c1 (stereo not shown) [Example 232, 3-{[5-(Adamantan-1-yloxymethyl)-2-bicyclo[2.2.1]hept-7-yl-1H-imidazole-4-carbonyl]-amino}-benzoic Acid] | 0.00138
25 | CCOC(=O)Cn1c(-c2ccccc2C)nc(C(=O)Nc2cccc(C(=O)O)c2)c1CCC12CC3CC(CC(C3)C1)C2 [Example 250, 3-{[5-(2-Adamantan-1-yl-ethyl)-1-ethoxycarbonylmethyl-2-o-tolyl-1H-imidazole-4-carbonyl]-amino}-benzoic Acid] | 0.186
26 | Cc1ccccc1-c1nc(CCC23CC4CC(CC(C4)C2)C3)c(C=Cc2cccc(C(=O)O)c2)n1C [Example 276, 3-{2-[5-(2-Adamantan-1-yl-ethyl)-3-methyl-2-o-tolyl-3H-imidazol-4-yl]-vinyl}-benzoic Acid] | 1.17
27 | Cc1ccccc1-c1nc(CCC23CC4CC(CC(C4)C2)C3)c(CCc2cccc(C(=O)O)c2)n1C [Example 277, 3-{2-[5-(2-Adamantan-1-yl-ethyl)-3-methyl-2-o-tolyl-3H-imidazol-4-yl]-ethyl}-benzoic Acid] | 1
28 | Cc1ccccc1-c1nc(CCc2cccc(C(=O)O)c2)c(CCC23CC4CC(CC(C4)C2)C3)n1C [Example 278, 3-{2-[5-(2-Adamantan-1-yl-ethyl)-1-methyl-2-o-tolyl-1H-imidazol-4-yl]-ethyl}-benzoic Acid] | 0.0646
